Active and inactive are the calls of the source. No cut-off for these calls is given here.
Tests used:
Rattus norvegicus [1] = assay: Antisecretory activity in pylorus-ligated Sprague-Dawley rat assessed as inhibition of gastric juice secretion at 30 mg/kg administered intraduodenally after 4 hrs by potentiographic titration analysis relative to control; type: functional, organism-based; set-up: dose 30 mg/kg
Rattus norvegicus [2] = assay: Antiulcer activity in Sprague-Dawley rat assessed as inhibition of cold-restraint stress-induced gastric erosion at 100 mg/kg, po after 3 hrs; type: functional, organism-based; set-up: dose 100 mg/kg; conditions: Stomach
Rattus norvegicus [3] = assay: Toxicity in po dosed Sprague-Dawley rat assessed as mortality; type: organism-based; conditions: in vivo
Rattus norvegicus [4] = assay: Antisecretory activity in pylorus-ligated Sprague-Dawley rat assessed as inhibition of gastric juice secretion at 10 mg/kg administered intraduodenally after 4 hrs by potentiographic titration analysis; type: functional, organism-based; set-up: dose 10 mg/kg
Rattus norvegicus [5] = assay: Antiulcer activity in Sprague-Dawley rat assessed as inhibition of cold-restraint stress-induced gastric erosion at 30 mg/kg, po after 3 hrs; type: functional, organism-based; set-up: dose 30 mg/kg; conditions: Stomach

Row | Compound | Activity (Rattus norvegicus [1]) | Activity (Rattus norvegicus [2]) | Activity (Rattus norvegicus [3]) | Activity (Rattus norvegicus [4]) | Activity (Rattus norvegicus [5])
1 | Cc1cnc2c(c1)CCCC2NC(=S)NC(=O)c1ccccc1 (configuration not stated) | inactive | inactive |  |  | 
2 | Cc1cnc2c(c1)C(NC(=S)Nc1ccccc1)CCC2 (configuration not stated) | Active | inactive |  |  | 
3 | NC(=S)N1CCCCc2cccnc21 | Active | inactive |  |  | 
4 | Cc1cnc2c(c1)C(NC(=S)NC(=O)c1ccccc1)CCC2 (configuration not stated) | inactive |  | Toxic |  | 
5 | Cc1cnc2c(c1)CCCC2NC(N)=S (configuration not stated) | Active | Active |  |  | 
6 | Cc1cnc2c(c1)C(NC(N)=S)CCC2 (configuration not stated) |  | inactive |  |  | 
7 | CS/C(=N/C#N)NC1CCCc2cc(C)cnc21 (configuration not stated) |  | inactive |  |  | 
8 | CCCCNC(=S)N1CCc2cccnc21 | inactive | inactive |  |  | 
9 | CNC(=S)NC(C)C1CCCc2cc(C)cnc21 (configuration not stated) | inactive | inactive |  |  | 
10 | CNC(=S)NC1CCCc2cc(C)cnc21 (configuration not stated) |  | Active |  | Active | 
11 | CNC(=S)N1CCc2cccnc21 | Active |  |  |  | Active
12 | CNC(=S)NC1CCCc2ncc(C)cc21 (configuration not stated) | inactive | inactive |  |  | 
13 | S=C1NCc2cccnc2N1 | inactive | inactive |  |  | 
14 | CNC(=S)N1CCCc2cccnc21 | Active |  |  |  | Active
15 | O=C(NC(=S)N1CCc2cccnc21)c1ccccc1 | inactive | inactive |  |  | 
16 | CNC(=S)N1CCc2ncc(C)cc2C1 | inactive | Active |  |  | 
17 | CNC(=S)N1CCCCc2cccnc21 |  | inactive |  | Active | 
18 | CN/C(=N/C(N)=O)NC1CCCc2cc(C)cnc21 (configuration not stated) | inactive | inactive |  |  | 
19 | CN/C(=N/C#N)NC1CCCc2cc(C)cnc21 (configuration not stated) | inactive | inactive |  |  | 
20 | CNC(=S)N1CCCc2ncccc21 | Active |  |  |  | Active
21 | CN/C(=N/C(N)=S)NC1CCCc2cc(C)cnc21 (configuration not stated) | inactive | Active |  |  | 
22 | NC(=S)N1CCc2cccnc21 |  |  | Toxic | Active | 

Reference: ChEMBL document CHEMBL3243927, “5,6,7,8-Tetrahydroquinolines. 5. Antiulcer and antisecretory activity of 5,6,7,8-tetrahydroquinolinethioureas and related heterocycles” (J Med Chem, 1977)
